As usually defined, the IC50 is the concentration needed to halve the response being measured.

Among the data in patent US7659244B2, “Rapamycin peptides conjugates: synthesis and uses thereof” (Quest Pharmatech, Inc., priority 2004, dated 2010) are IC50 values, retold here.

Read-outs that look alike come from different tables or passages of the source.

[1] abbreviates: read-out: Inhibition of H^3 Thymidine uptake (IC50 in nM), D341 cells, 96 hours incubation.
The mark [2] stands for this setting: read-out: Inhibition of H^3 Thymidine uptake (IC50 in nM), Lncap cells, 96 hours incubation.
The mark [3] stands for this setting: read-out: Inhibition of H^3 Thymidine uptake (IC50 in nM), OVCAR-3 cells, 96 hours incubation.
Where [4] appears, read: read-out: Inhibition of H^3 Thymidine uptake (IC50 in nM), A431 cells, 96 hours incubation.
Where [5] appears, read: read-out: Inhibition of H^3 Thymidine uptake (IC50 in nM), SKMEL-2 cells, 96 hours incubation.
The mark [6] stands for this setting: read-out: Inhibition of H^3 Thymidine uptake (IC50 in nM), SK-N-SH cells, 96 hours incubation.
Where [7] appears, read: read-out: Inhibition of H^3 Thymidine uptake (IC50 in nM), LS174T cells, 96 hours incubation.
Setting [8] is: read-out: Inhibition of H^3 Thymidine uptake (IC50 in nM), MCF-7 cells, 96 hours incubation.
Where [9] appears, read: read-out: Inhibition of H^3 Thymidine uptake (IC50 in nM), SKOV-3 cells, 96 hours incubation.

Method for A431: (§1) Quantification of cell proliferation and cell viability was determined by measuring the amount of radioactive [^3H-methyl]-thymidine incorporated into DNA.
(§2) Cell culture: For each cell line, culture was carried according to the ATCC Product Information Sheet provided. Cell lines were always freshly thawed prior to each experiment. For all experiments exponentially growing cells were harvested and centrifuged at 1100 rpm, the spent medium was aspirated and cell pellets were resuspended in fresh complete medium. Viable cells were enumerated by trypan blue exclusion using a hemacytometer.
(§3) Cells were then seeded in 96 well tissue culture plates in a total volume of 100 μL/well. A preliminary experiment should be performed to determine the most appropriate cell density for each individual cell line. Cells were allowed to attach and acclimate overnight.
(§4) Addition of test compounds: Each test compound was dissolved in DMSO at a final concentration of 2 mM. Each stock compound was then diluted in complete medium (1:100) to obtain a 20 μM working solution. The working solution was used for further serial dilutions to obtain concentrations of 200 nM, 20 nM, 2 nM, 0.2 nM and 0.02 nM. 100 μL of each dilution was added to the 100 μL cell cultures (3 replicates),. to give final test concentrations of 100 nM, 10 nM, 1 nM, 0.1 nM and 0.01 nM. Using this system of dilutions, the maximum concentration of DMSO to which the cells were exposed was 0.01% v/v. Therefore, 0.01% DMSO was added to control cells to which no test compounds was added. On each plate two positive controls were included: Adriamycin Hydrochloride and Rapamycin. For each positive control 3 concentrations were chosen in a range that achieved an LC50, this range is cell line specific and must be predetermined in a pilot experiment. Plates were incubated for 96 hours prior to harvesting. [^3H-methyl]-thymidine incorporation: After 80 hours incubation, 10 μL (0.5 μCi) of [^3H-methyl]-thymidine diluted in 1× HBSS was added and plates were incubated overnight.
(§5) Growth medium was removed from each well and 100 uL of Trypsin-EDTA was added. The plate was incubated at 37° C. until cells were trypsinized (check under microscope). The detached cells were harvested using a semiautomatic cell harvester. Filters were dried prior to addition to scintillation vials. two mL of scintillation fluid was automatically dispensed into each vial and counting was effected on program 1 (^3H, 1 min, DPM).
(§6) The average and standard error from the DPM counts of replicate samples were calculated.
Method for D341: as §1, §2, §3, §4, §5, §6
Method for LS174T: as §1, §2, §3, §4, §5, §6
Method for Lncap: as §1, §2, §3, §4, §5, §6
Method for MCF-7: as §1, §2, §3, §4, §5, §6
Method for OVCAR-3: as §1, §2, §3, §4, §5, §6
Method for SK-N-SH: as §1, §2, §3, §4, §5, §6
Method for SKMEL-2: as §1, §2, §3, §4, §5, §6
Method for SKOV-3: as §1, §2, §3, §4, §5, §6

Consider `CC[C@H](C)[C@H](NC(=O)O[C@@H]1CC[C@@H](C[C@@H](C)[C@@H]2CC(=O)[C@H](C)/C=C(\C)[C@@H](O)[C@@H](OC)C(=O)[C@H](C)C[C@H](C)/C=C/C=C/C=C(\C)[C@@H](OC)C[C@@H]3CC[C@@H](C)[C@@](O)(O3)C(=O)C(=O)N3CCCC[C@H]3C(=O)O2)C[C@H]1OC)C(=O)N[C@@H](CO)Cc1ccccc1` [Compound 7a, Rapamycin-42-O-ester-(NH-L-Ile-D-Phe-CH2OH)], for which the IC50 was 138 nM in the test on D341 (96 h); 154 nM in the test with Lncap (96 h); 416 nM with OVCAR-3 (96 h); 608 nM in the test on A431 (96 h); 78.1 nM in the test on SKMEL-2 (96 h); 86.9 nM in the test with SK-N-SH (96 h). For the same molecule, the IC50 stood at 626 nM in the test with LS174T (96 h), 29.6 nM in the test on MCF-7 (96 h) and 80 nM with SKOV-3 (96 h).

Turning to `CC[C@H](C)[C@H](NC(=O)O[C@@H]1CC[C@@H](C[C@@H](C)[C@@H]2CC(=O)[C@H](C)/C=C(\C)[C@@H](O)[C@@H](OC)C(=O)[C@H](C)C[C@H](C)/C=C/C=C/C=C(\C)[C@@H](OC)C[C@@H]3CC[C@@H](C)[C@@](O)(O3)C(=O)C(=O)N3CCCC[C@H]3C(=O)O2)C[C@H]1OC)C(=O)N[C@H](CO)Cc1ccccc1` [Compound 7b, Rapamycin-42-O-ester-(NH-L-Ile-S-Phe-CH2OH)], the IC50 in the test on D341 (96 h) is 182 nM; with Lncap (96 h) it was 309 nM; in the test on OVCAR-3 (96 h) it was 424 nM; with A431 (96 h) it was 1840 nM; in the test with SKMEL-2 (96 h), 326 nM; in the test on SK-N-SH (96 h), 144 nM. The IC50 in the test with LS174T (96 h) was 1480 nM; in the test with MCF-7 (96 h), 53.3 nM; in the test with SKOV-3 (96 h), 136 nM.

With `CC[C@H](C)[C@H](NC(=O)[C@H](CC(C)C)NC(=O)O[C@@H]1CC[C@@H](C[C@@H](C)[C@@H]2CC(=O)[C@H](C)/C=C(\C)[C@@H](O)[C@@H](OC)C(=O)[C@H](C)C[C@H](C)/C=C/C=C/C=C(\C)[C@@H](OC)C[C@@H]3CC[C@@H](C)[C@@](O)(O3)C(=O)C(=O)N3CCCC[C@H]3C(=O)O2)C[C@H]1OC)C(=O)N[C@@H](CO)Cc1ccccc1` [Compound 7c, Rapamycin-42-O-ester-(NH-L-Leu-L-Ile-D-Phe-CH2OH)], the half-inhibitory concentration (IC50) with D341 (96 h) was 114 nM; in the test with Lncap (96 h) it was 212 nM; with OVCAR-3 (96 h), 260 nM; in the test on A431 (96 h) it was 286 nM; with SKMEL-2 (96 h), 87.4 nM; in the test with SK-N-SH (96 h), 111 nM. Moreover, the concentration for half-maximal inhibition (IC50) in the test with LS174T (96 h) turned out to be 1700 nM; in the test on MCF-7 (96 h), 32.3 nM; in the test on SKOV-3 (96 h), 72.1 nM.

Consider `CC[C@H](C)[C@H](NC(=O)[C@H](CC(C)C)NC(=O)[C@H](C)NC(=O)O[C@@H]1CC[C@@H](C[C@@H](C)[C@@H]2CC(=O)[C@H](C)/C=C(\C)[C@@H](O)[C@@H](OC)C(=O)[C@H](C)C[C@H](C)/C=C/C=C/C=C(\C)[C@@H](OC)C[C@@H]3CC[C@@H](C)[C@@](O)(O3)C(=O)C(=O)N3CCCC[C@H]3C(=O)O2)C[C@H]1OC)C(=O)N[C@@H](CO)Cc1ccccc1` [Compound 7e, Rapamycin-42-O-ester-(NH-L-Ala-L-Leu-L-Ile-D-Phe-CH2OH)], for which the IC50 in the test with D341 (96 h) stood at 82.8 nM; in the test with Lncap (96 h) it was 191 nM; with OVCAR-3 (96 h), 503 nM; with A431 (96 h), 490 nM; with SKMEL-2 (96 h), 155 nM; in the test with SK-N-SH (96 h), 90 nM. The IC50 with LS174T (96 h) was 146 nM; with MCF-7 (96 h), 66.9 nM; in the test with SKOV-3 (96 h), 76.6 nM.

As to `CC[C@H](C)[C@H](NC(=O)[C@H](CC(C)C)NC(=O)[C@H](C)NC(=O)[C@@H](Cc1cn(C(c2ccccc2)(c2ccccc2)c2ccccc2)cn1)NC(=O)O[C@@H]1CC[C@@H](C[C@@H](C)[C@@H]2CC(=O)[C@H](C)/C=C(\C)[C@@H](O)[C@@H](OC)C(=O)[C@H](C)C[C@H](C)/C=C/C=C/C=C(\C)[C@@H](OC)C[C@@H]3CC[C@@H](C)[C@@](O)(O3)C(=O)C(=O)N3CCCC[C@H]3C(=O)O2)C[C@H]1OC)C(=O)N[C@@H](CO)Cc1ccccc1` [Compound 7g], the IC50 was 937 nM with D341 (96 h); 946 nM with SKMEL-2 (96 h); 3680 nM with LS174T (96 h); 2440 nM in the test on MCF-7 (96 h); 595 nM in the test on SKOV-3 (96 h).

For `CC[C@H](C)[C@H](NC(=O)[C@H](CC(C)C)NC(=O)[C@H](C)NC(=O)[C@H](Cc1cn(C(c2ccccc2)(c2ccccc2)c2ccccc2)cn1)NC(=O)O[C@@H]1CC[C@@H](C[C@@H](C)[C@@H]2CC(=O)[C@H](C)/C=C(\C)[C@@H](O)[C@@H](OC)C(=O)[C@H](C)C[C@H](C)/C=C/C=C/C=C(\C)[C@@H](OC)C[C@@H]3CC[C@@H](C)[C@@](O)(O3)C(=O)C(=O)N3CCCC[C@H]3C(=O)O2)C[C@H]1OC)C(=O)N[C@@H](CO)Cc1ccccc1` [Compound 7h], the half-maximal inhibitory concentration (IC50) was 405 nM with D341 (96 h); 374 nM in the test with Lncap (96 h); 375 nM in the test with OVCAR-3 (96 h); 2370 nM with A431 (96 h); 416 nM in the test with SKMEL-2 (96 h); 223 nM with SK-N-SH (96 h). The IC50 stood at 777 nM in the test with LS174T (96 h), 85.5 nM with MCF-7 (96 h) and 155 nM in the test on SKOV-3 (96 h).

On to `CO[C@H]1C[C@@H]2CC[C@@H](C)[C@@](O)(O2)C(=O)C(=O)N2CCCC[C@H]2C(=O)O[C@H]([C@H](C)C[C@@H]2CC[C@@H](OC(=O)N[C@@H](CO)[C@@H](O)c3ccccc3)[C@H](OC)C2)CC(=O)[C@H](C)/C=C(\C)[C@@H](O)[C@@H](OC)C(=O)[C@H](C)C[C@H](C)/C=C/C=C/C=C/1C` [Compound 7l, Rapamycin-42-O-ester-(1S,2S)-(+)-2-amino-1-phenyl-1,3-propandiol], for which the half-inhibitory concentration (IC50) with D341 (setting [1]) was 27.6 nM; in the test on Lncap (setting [2]), 64.6 nM; with OVCAR-3 (setting [3]) it was 113 nM; with A431 (setting [4]), 217 nM; with SKMEL-2 (setting [5]), 29.1 nM; in the test on SK-N-SH (setting [6]), 15.6 nM. Also, the IC50 was found to be 23500 nM with LS174T (setting [7]), 6.35 nM with MCF-7 (setting [8]) and 17.1 nM in the test on SKOV-3 (setting [9]).

`CCC(C)C(CO)NC(=O)O[C@@H]1CC[C@@H](C[C@@H](C)[C@@H]2CC(=O)[C@H](C)/C=C(\C)[C@@H](O)[C@@H](OC)C(=O)[C@H](C)C[C@H](C)/C=C/C=C/C=C(\C)[C@@H](OC)C[C@@H]3CC[C@@H](C)[C@@](O)(O3)C(=O)C(=O)N3CCCC[C@H]3C(=O)O2)C[C@H]1OC` (some centres unmarked) [Compound 7m, Rapamycin-42-O-ester-2-amino-3-methyl-1-pentanol]: the half-maximal inhibitory concentration (IC50) is 86.8 nM in the test with D341 (setting [1]); 136 nM in the test on Lncap (setting [2]); 488 nM with OVCAR-3 (setting [3]); 626 nM with A431 (setting [4]); 147 nM in the test on SKMEL-2 (setting [5]); 56.7 nM in the test with SK-N-SH (setting [6]). In addition, the figures for the IC50 in the test on LS174T (setting [7]), in the test on MCF-7 (setting [8]) and in the test on SKOV-3 (setting [9]) were 664 nM, 31.3 nM and 69.1 nM, respectively.

With `CO[C@H]1C[C@@H]2CC[C@@H](C)[C@@](O)(O2)C(=O)C(=O)N2CCCC[C@H]2C(=O)O[C@H]([C@H](C)C[C@@H]2CC[C@@H](OC(=O)NCC(O)CO)[C@H](OC)C2)CC(=O)[C@H](C)/C=C(\C)[C@@H](O)[C@@H](OC)C(=O)[C@H](C)C[C@H](C)/C=C/C=C/C=C/1C` (some centres unmarked) [Compound 7n, Rapamycin-42-O-ester-3-amino-1,2-propanediol], the IC50 with D341 (setting [1]) turned out to be 14.7 nM; in the test on Lncap (setting [2]), 42.7 nM; with OVCAR-3 (setting [3]), 71.9 nM; with A431 (setting [4]) it was 314 nM; with SKMEL-2 (setting [5]), 11.7 nM; in the test on SK-N-SH (setting [6]), 7.27 nM. The half-maximal inhibitory concentration (IC50) with LS174T (setting [7]) turned out to be 55100 nM; in the test on MCF-7 (setting [8]) it was 2.53 nM; in the test on SKOV-3 (setting [9]), 7.96 nM.

As for `CO[C@H]1C[C@@H]2CC[C@@H](C)[C@@](O)(O2)C(=O)C(=O)N2CCCC[C@H]2C(=O)O[C@H]([C@H](C)C[C@@H]2CC[C@@H](OC(=O)NC(CO)CO)[C@H](OC)C2)CC(=O)[C@H](C)/C=C(\C)[C@@H](O)[C@@H](OC)C(=O)[C@H](C)C[C@H](C)/C=C/C=C/C=C/1C` [Compound 7o, Rapamycin-42-O-ester-2-amino-1,3-propanediol], the IC50 is 36.2 nM in the test with D341 (setting [1]); 39.6 nM with Lncap (setting [2]); 80.7 nM in the test with OVCAR-3 (setting [3]); 150 nM with A431 (setting [4]); 48.3 nM in the test on SKMEL-2 (setting [5]); 5.84 nM in the test with SK-N-SH (setting [6]). Besides, the IC50 was found to be 1030 nM in the test on LS174T (setting [7]), 2.58 nM in the test with MCF-7 (setting [8]) and 27.4 nM in the test with SKOV-3 (setting [9]).

With `CO[C@H]1C[C@@H]2CC[C@@H](C)[C@@](O)(O2)C(=O)C(=O)N2CCCC[C@H]2C(=O)O[C@H]([C@H](C)C[C@@H]2CC[C@@H](OC(=O)NC(C)(CO)CO)[C@H](OC)C2)CC(=O)[C@H](C)/C=C(\C)[C@@H](O)[C@@H](OC)C(=O)[C@H](C)C[C@H](C)/C=C/C=C/C=C/1C` [Compound 7p, Rapamycin-42-O-ester-2-amino-2-methyl-1,3-propanediol], the IC50 was determined as 10.2 nM with D341 (setting [1]); 7.12 nM in the test with Lncap (setting [2]); 79.3 nM in the test on OVCAR-3 (setting [3]); 254 nM in the test with A431 (setting [4]); 17.7 nM in the test with SKMEL-2 (setting [5]); 7.19 nM with SK-N-SH (setting [6]). The half-inhibitory concentration (IC50) in the test on LS174T (setting [7]) amounted to 2310 nM; with MCF-7 (setting [8]) it was 1.17 nM; with SKOV-3 (setting [9]) it was 8.8 nM.
